The values below come from ChEMBL document CHEMBL3797109, “Biochemometrics for Natural Products Research: Comparison of Data Analysis Approaches and Application to Identification of Bioactive Compounds” (2016).

≈ marks a conversion by molar mass, not a printed value.

Experiment [1] concerns Staphylococcus aureus. Nature of the experiment: Antimicrobial activity against Staphylococcus aureus SA1199 after 24 hrs by CLSI method. The experiment is classed as functional. The following applies: SA1199, 24 h.
Experiment [2] deals with Staphylococcus aureus. Nature of the experiment: Antimicrobial activity against methicillin-resistant Staphylococcus aureus USA300 LAC AH1263 after 24 hrs by CLSI method. It counts as functional. The following applies: USA300 LAC AH1263, 24 h.

Broadly, the MIC is the smallest concentration in the dilution series that meets the test's criterion for growth inhibition. The low end stands for inhibition by little substance, the high end for a need for much substance. For `C[C@@H]1OC(=O)/C=C/[C@@H](O)[C@H](C)OC(=O)C[C@H](C)OC(=O)/C=C/[C@H]1O`, the lowest concentration to inhibit growth against Staphylococcus aureus [1] (MIC) was 219 µM (≈ 75 µg/mL). As to `COc1cc(O)c2c(=O)oc3cc(O)cc(C)c3c2c1`, 275 µM (≈ 74.9 µg/mL) was the least that counted as inhibitory with Staphylococcus aureus [1] (MIC).

For `COc1ccc2cc3[n+](cc2c1OC)CCc1cc2c(cc1-3)OCO2` [BERBERINE], the MIC in the experiment on Staphylococcus aureus [1] and with Staphylococcus aureus [2] was 446 µM in each case.
